Data published in US9221809B2 (MERCK SHARP & DOHME CORP., priority 2011, dated 2015).

molecular target: IRAK4 (Homo sapiens (Human), UniProt Q9NWZ3); test: IRAK4 kinase activity, IMAP fluorescence polarization assay; format: biochemical; conditions: 100 μM ATP, 0.5 nM GST tagged IRAK4; read-out: IRAK4 IC50
Procedure, shortened: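 Fluorescence polarization (IMAP nanoparticle binding of phosphopeptide) reports activity after a 30 min, 25 °C reaction. Conditions: 100 μM ATP, 0.5 nM GST-IRAK4, 100 nM fluorescent peptide, 10 mM Tris pH 7.2, 1 mM MgCl2, 1 mM DTT, 0.01% Tween 20.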

Sequence of IRAK4 (Q9NWZ3 whole entry): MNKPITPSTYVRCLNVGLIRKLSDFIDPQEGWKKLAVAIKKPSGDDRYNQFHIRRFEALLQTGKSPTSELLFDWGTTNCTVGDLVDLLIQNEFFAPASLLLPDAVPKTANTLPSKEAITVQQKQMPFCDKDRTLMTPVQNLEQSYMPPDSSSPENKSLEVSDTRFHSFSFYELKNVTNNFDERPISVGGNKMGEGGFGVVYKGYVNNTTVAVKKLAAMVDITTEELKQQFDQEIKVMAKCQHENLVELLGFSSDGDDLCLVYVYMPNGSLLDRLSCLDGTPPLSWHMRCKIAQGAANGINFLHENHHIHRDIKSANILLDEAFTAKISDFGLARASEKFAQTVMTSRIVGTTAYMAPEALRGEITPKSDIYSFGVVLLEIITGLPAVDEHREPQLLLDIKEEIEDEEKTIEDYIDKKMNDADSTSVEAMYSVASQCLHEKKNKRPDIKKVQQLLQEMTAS

IC50 [µM] | Compound
8.1 | O=c1[nH]c(N2CCOCC2)nc(NCC(O)CO)c1-c1nc2ccccc2s1 (stereo not drawn) [Example 246, 5-(1,3-benzothiazol-2-yl)-6-[(2,3-dihydroxypropyl)amino]-2-(morpholin-4-yl)-3,4-dihydropyrimidin-4-one]

same assay, conditions: 100 μM ATP; read-out: IC50

IC50 [µM] | Compound
3 | N[C@H]1C[C@H]1Nc1nc(N2CCOCC2)[nH]c(=O)c1-c1nc2ccccc2s1 [Example 247, 6-[[(1R,2S)-2-amino-cyclopropyl]amino]-5-(1,3-benzothiazol-2-yl)-2-(morpholin-4-yl)-3,4-dihydropyrimidin-4-one]
0.15 | CC1(Nc2nc(N3CCOCC3)[nH]c(=O)c2-c2nc3ccccc3s2)CCCNC1 (stereo not drawn) [Example 248, 5-(1,3-benzothiazol-2-yl)-6-[(3-methylpiperidin-3-yl)amino]-2-(morpholin-4-yl)-3,4-dihydro-pyrimidin-4-one]
3.9 | NC(=O)CNc1nc(N2CCOCC2)[nH]c(=O)c1-c1nc2ccccc2s1 [Example 249, 2-[[5-(1,3-benzothiazol-2-yl)-2-(morpholin-4-yl)-6-oxo-1,6-dihydropyrimidin-4-yl]amino]acetamide]
0.3 | N=C(N)CNc1nc(N2CCOCC2)[nH]c(=O)c1-c1nc2ccccc2s1 [Example 250, 2-[[5-(1,3-benzothiazol-2-yl)-2-(morpholin-4-yl)-6-oxo-1,6-dihydropyrimidin-4-yl]amino]ethanimidamide]
0.64 | O=c1[nH]c(N2CCOCC2)nc(NCCNCCO)c1-c1nc2ccccc2s1 [Example 251, 5-(benzo[d]thiazol-2-yl)-6-(2-(2-hydroxyethyl-amino)ethylamino)-2-morpholino-pyrimidin-4(3H)-one]
1.2 | CN1CCCC(Nc2nc(N3CCOCC3)[nH]c(=O)c2-c2nc3ccccc3s2)C1 (stereo not drawn) [Example 252, 5-(1,3-benzothiazol-2-yl)-6-[(1-methylpiperidin-3-yl)amino]-2-(morpholin-4-yl)-3,4-dihydro-pyrimidin-4-one]
0.3 | O=c1[nH]c(N2CCOCC2)nc(NC2CNC2)c1-c1nc2ccccc2s1 [Example 253, 6-[(azetidin-3-yl)amino]-5-(1,3-benzothiazol-2-yl)-2-(morpholin-4-yl)-3,4-dihydro-pyrimidin-4-one]
1.6 | O=c1[nH]c(N2CCOCC2)nc(NCC2CCCCN2)c1-c1nc2ccccc2s1 (stereo not drawn) [Example 254, 5-(1,3-benzothiazol-2-yl)-2-(morpholin-4-yl)-6-[(piperidin-2-ylmethyl)amino]-3,4-dihydro-pyrimidin-4-one]
2 | CCN1CCCC1CNc1nc(N2CCOCC2)[nH]c(=O)c1-c1nc2ccccc2s1 (stereo not drawn) [Example 255, 5-(1,3-benzothiazol-2-yl)-6-[[(1-ethylpyrrolidin-2-yl)methyl]amino]-2-(morpholin-4-yl)-3,4-dihydropyrimidin 4-one]
0.055 | O=c1[nH]c(N2CCOCC2)nc(NCCN2CCNCC2)c1-c1nc2ccccc2s1 [Example 256, 5-(1,3-benzothiazol-2-yl)-2-(morpholin-4-yl)-6-[[2-(piperazin-1-yl)ethyl]amino]-3,4-dihydropyrimidin-4-one]
0.002 | O=c1[nH]c(N2CCOCC2)nc(NCCN2CCCCC2)c1-c1nc2ccccc2s1 [Example 257, 5-(1,3-benzothiazol-2-yl)-2-(morpholin-4-yl)-6-[[2-(piperidin-1-yl)ethyl]amino]-3,4-dihydropyrimidin-4-one]
0.78 | O=c1[nH]c(N2CCOCC2)nc(NCCN2CCC(O)CC2)c1-c1nc2ccccc2s1 [Example 258, 5-(1,3-benzothiazol-2-yl)-6-[[2-(4-hydroxypiperidin-1-yl)ethyl]amino]-2-(morpholino-4-yl)-3,4-dihydropyrimidin-4-one]
2.2 | O=c1[nH]c(N2CCOCC2)nc(NCCN2CCCC2)c1-c1nc2ccccc2s1 [Example 259, 5-(1,3-benzothiazol-2-yl)-2-(morpholin-4-yl)-6-[[2-(pyrrolidin-1-yl)ethyl]amino]-3,4-dihydropyrimidin-4-one]
1.6 | CN(C)CCNc1nc(N2CCOCC2)[nH]c(=O)c1-c1nc2ccccc2s1 [Example 260, 5-(1,3-benzothiazol-2-yl)-6-[[2-(dimethylamino)ethyl]amino]-2-(morpholin-4-yl)-3,4-dihydropyrimidin-4-one]
8.2 | CC(=O)NCCNc1nc(N2CCOCC2)[nH]c(=O)c1-c1nc2ccccc2s1 [Example 261, N-(2-[[5-(1,3-benzothiazol-2-yl)-2-(morpholin-4-yl)-6-oxo-1,6-dihydropyrimidin-4-yl]amino]ethyl)acetamide]
0.33 | CCC(CO)Nc1nc(N2CCOCC2)[nH]c(=O)c1-c1nc2ccccc2s1 (stereo not drawn) [Example 262, 5-(benzo[d]thiazol-2-yl)-6-(1-hydroxy-butan-2-ylamino)-2-morpholino-pyrimidin-4(3H)-one]
0.23 | NC1CCCCC1Nc1nc(N2CCOCC2)[nH]c(=O)c1-c1nc2ccccc2s1 (stereo not drawn) [Example 263, 6-(2-aminocyclohexylamino)-5-(benzo[d]thiazol-2-yl)-2-morpholino-pyrimidin-4(3H)-one]
0.18 | O=c1[nH]c(N2CCOCC2)nc(NCCc2ncc[nH]2)c1-c1nc2ccccc2s1 [Example 264, 6-(2-(1H-imidazol-2-yl)ethylamino)-5-(benzo[d]thiazol-2-yl)-2-morpholino-pyrimidin-4(3H)-one]

IC50 [µM] | Compound
0.78 | CC(O)CNc1nc(N2CCOCC2)[nH]c(=O)c1-c1nc2ccccc2s1 (stereo not drawn) [Example 265, 5-(benzo[d]thiazol-2-yl)-6-(2-hydroxypropylamino)-2-morpholino-pyrimidin-4(3H)-one]
2.5 | CC(C)C[C@H](CO)Nc1nc(N2CCOCC2)[nH]c(=O)c1-c1nc2ccccc2s1 [Example 266, (R)-5-(benzo[d]thiazol-2-yl)-6-(1-hydroxy-4-methylpentan-2-ylamino)-2-morpholinopyrimidin-4(3H)-one]
8.3 | O=c1[nH]c(N2CCOCC2)nc(N[C@H]2c3ccccc3C[C@H]2O)c1-c1nc2ccccc2s1 [Example 267, 5-(benzo[d]thiazol-2-yl)-6-((1S,2R)-2-hydroxy-2,3-dihydro-1H-inden-1-ylamino)-2-morpholinopyrimidin-4(3H)-one]
0.62 | O=c1[nH]c(N2CCOCC2)nc(NC2CCC(O)CC2)c1-c1nc2ccccc2s1 (stereo not drawn) [Example 268, 5-(benzo[d]thiazol-2-yl)-6-(4-hydroxycyclo-hexylamino)-2-morpholinopyrimidin-4(3H)-one]
5.6 | O=c1[nH]c(N2CCOCC2)nc(NC2CCCCC2O)c1-c1nc2ccccc2s1 (stereo not drawn) [Example 269, 5-(benzo[d]thiazol-2-yl)-6-(2-hydroxycyclohexyl-amino)-2-morpholinopyrimidin-4(3H)-one]
0.11 | O=c1[nH]c(N2CCOCC2)nc(NC(CO)CO)c1-c1nc2ccccc2s1 [Example 270, 5-(benzo[d]thiazol-2-yl)-6-(1,3-dihydroxy-propan-2-ylamino)-2-morpholinopyrimidin-4(3H)-one]
0.33 | O=c1[nH]c(N2CCOCC2)nc(NCC2CCNCC2)c1-c1nc2ccccc2s1 [Example 271, 5-(1,3-benzothiazol-2-yl)-2-(morpholin-4-yl)-6-[(piperidin-4-ylmethyl)amino]-3,4-dihydropyrimidin-4-one; trifluoroacetic acid]
1.6 | CN(C)CCNc1nc(N2CCOCC2)[nH]c(=O)c1-c1ccc2ccccc2n1 [Example 272, 6-[[2-(dimethylamino)ethyl]amino]-2-(morpholin-4-yl)-5-(quinolin-2-yl)-3,4-dihydropyrimidin-4-one]
0.67 | O=c1[nH]c(N2CCOCC2)nc(NCCNCCO)c1-c1ccc2ccccc2n1 [Example 273, 6-([2-[(2-hydroxyethyl)amino]ethyl]amino)-2-(morpholin-4-yl)-5-(quinolin-2-yl)-3,4-dihydropyrimidin-4-one]
0.72 | CN1CCCC(Nc2nc(N3CCOCC3)[nH]c(=O)c2-c2ccc3ccccc3n2)C1 (stereo not drawn) [Example 274, 6-[(1-methylpiperidin-3-yl)amino]-2-(morpholin-4-yl)-5-(quinolin-2-yl)-3,4-dihydropyrimidin-4-one]
0.15 | O=c1[nH]c(N2CCOCC2)nc(NC2CNC2)c1-c1ccc2ccccc2n1 [Example 275, 6-[(azetidin-3-yl)amino]-2-(morpholin-4-yl)-5-(quinolin-2-yl)-3,4-dihydropyrimidin-4-one]
0.34 | O=c1[nH]c(N2CCOCC2)nc(NCC2CCCCN2)c1-c1ccc2ccccc2n1 (stereo not drawn) [Example 276, 2-morpholino-6-(piperidin-2-ylmethylamino)-5-(quinolin-2-yl)pyrimidin-4(3H)-one]
1.6 | CCN1CCCC1CNc1nc(N2CCOCC2)[nH]c(=O)c1-c1ccc2ccccc2n1 (stereo not drawn) [Example 277, 6-((1-ethylpyrrolidin-2-yl)methylamino)-2-morpholino-5-(quinolin-2-yl)pyrimidin-4(3H)-one]
2.8 | O=c1[nH]c(N2CCOCC2)nc(NCCN2CCCCC2)c1-c1ccc2ccccc2n1 [Example 278, 2-(morpholin-4-yl)-6-[[2-(piperidin-1-yl)ethyl]amino]-5-(quinolin-2-yl)-3,4-dihydropyrimidin-4-one]
4.9 | O=c1[nH]c(N2CCOCC2)nc(NCCN2CCCC2)c1-c1ccc2ccccc2n1 [Example 279, 2-(morpholin-4-yl)-6-[[2-(pyrrolidin-1-yl)ethyl]amino]-5-(quinolin-2-yl)-3,4-dihydropyrimidin-4-one]
1.7 | O=c1[nH]c(N2CCOCC2)nc(NCC(O)CO)c1-c1ccc2ccccc2n1 (stereo not drawn) [Example 281, 6-[(2,3-dihydroxypropyl)amino]-2-(morpholin-4-yl)-5-(quinolin-2-yl)-3,4-dihydropyrimidin-4-one]
2.2 | O=c1[nH]c(N2CCOCC2)nc(NCCN2CCC(O)CC2)c1-c1ccc2ccccc2n1 [Example 282, 6-[[2-(4-hydroxypiperidin-1-yl)ethyl]amino]-2-(morpholin-4-yl)-5-(quinolin-2-yl)-3,4-dihydropyrimidin-4-one]
